The text below walks through data of patent US11325913B2, “Compounds and methods for the treatment of malaria” (THE BROAD INSTITUTE, INC., priority 2013, dated 2022).

The experiment deals with P. falciparum Dd2. Kind of experiment: Activity against the Dd2 strain of P. falciparum (SYBR Green I, 72 h). The experiment is classed as cell-based. As to conditions: Plasmodium falciparum, DD2, 72 h, P. falciparum Dd2, 72 h incubation. The protocol: The Dd2 strain of P. falciparum was cultured in complete medium (RPMI with L-glutamine, 4.3% heat-inactivated O-positive human serum, 2.08 mg/ml albumax, 0.013 mg/ml hypoxanthine, 1.17 mg/ml glucose, 0.18% NaHCO3, 0.031 M Hepes, 2.60 mM NaOH, and 0.043 mg/ml gentamicin) until the parasitemia reached 3-8%. Parasitemia was determined by checking at least 500 red blood cells from a Giemsa-stained blood smear. The Dd2 cultures along with tested O-positive red blood cells were centrifuged at room temperature at 2,000 rpm for 5 minutes using an Eppendorf centrifuge 5810R with an A-4-81 rotor. The medium was aspirated off. For the compound screening, a parasite dilution at a 1% parasitemia and 1.0% hematocrit was created with screening medium (RPMI with L-glutamine, 4.16 mg/ml albumax II, 0.013 mg/ml hypoxanthine, 1.73 mg/ml glucose, 0.18% NaHCO3, 0.031 M Hepes, 2.60 mM NaOH, and 0.043 mg/ml gentamicin). The suspension was gassed with 93% nitrogen, 4% carbon dioxide, and 3% oxygen and placed at 37° C. until needed. Using a liquid dispenser, 20 μl of screening medium was dispensed into 384-well, black, clear-bottom plates. With a PinTool, 100 nl of compounds dissolved in DMSO was transferred into the assay plates along with control compound (mefloquine). Next, 30 μl of the parasite suspension in screening medium was then dispensed into the assay plates such that the final parasitemia was 1% and the final hematocrit was 1.0%. Final concentration of DMSO was 0.125%. Mefloquine at a final concentration of 20 μM and DMSO at a final concentration of 0.125% were used within the assay plates to serve as background and baseline controls, respectively. The assay plates were transferred to incubators (93% nitrogen, 4% carbon dioxide, and 3% oxygen during the 72 h incubation at 37° C.). Ten microliters of detection reagent consisting of 10×SYBR Green I (Invitrogen; supplied in 10,000× concentration) in lysis buffer (20 mM Tris-HCl, 5 mM EDTA, 0.16% Saponin wt/vol, 1.6% Triton X vol/vol) was dispensed into the assay plates. For optimal staining, the assay plates were left at room temperature for 24 h in the dark. The assay plates were read by using an Envision (PerkinElmer) reader, with 505 dichroic mirrors with 485-nm excitation and 530-nm emission settings, and the plate reads were from the bottom.
By following the above-described protocol, the 50% effective concentration (EC50) for compounds 1-95 was measured against P. falciparum Dd2 and the results are shown in Table 2: […]
In the case of `COc1ccc(NC(=O)N2CCCCN3[C@@H](CO)[C@H](c4ccc(C#Cc5ccccn5)cc4)[C@@H]3C2)cc1` [Compound 25, (8R,9R,10R)-10-(hydroxymethyl)-N-(4-methoxyphenyl)-9-(4-(pyridin-2-ylethynyl)phenyl)-1,6-diazabicyclo[6.2.0] decane-6-carboxamide], a half-maximal response (EC50) required 155 nM.

`Cc1ccc(-c2ccc([C@@H]3[C@H](CO)N4CCCCN(S(=O)(=O)c5cccc(C)c5)C[C@@H]34)cc2)cc1` [Compound 26, ((8R,9S,10R)-9-(4′-methyl-[1,1′-biphenyl]-4-yl)-6-(m-tolylsulfonyl)-1,6-diazabicyclo[6.2.0]decan-10-yl)methanol] came in with an EC50 of 955 nM.

As to `O=C(Nc1cccc(F)c1)N1CCCCN2[C@@H](CO)[C@H](c3ccc(C#Cc4cccnc4)cc3)[C@@H]2C1` [Compound 28, (8R,9R,10R)-N-(3-fluorophenyl)-10-(hydroxymethyl)-9-(4-(pyridin-3-ylethynyl)phenyl)-1,6-diazabicyclo[6.2.0] decane-6-carboxamide], the EC50 worked out at 368 nM.

In the case of `COc1ccc(C#Cc2ccc([C@@H]3[C@H](CO)N4CCCCN(C(=O)Nc5ccccc5F)C[C@@H]34)cc2)cc1` [Compound 29, (8R,9S,10R)-N-(2-fluorophenyl)-10-(hydroxymethyl)-9-(4-((4-methoxyphenyl)ethynyl)phenyl)-1,6-diazabicyclo[6.2.0] decane-6-carboxamide], it took 898 nM to reach a half-maximal effect (EC50).

In turn, `O=C(Nc1ccccc1)N1CCCCN2[C@H](CO)[C@H](c3ccc(C#Cc4ccccc4)cc3)[C@@H]2C1` [Compound 30, (8R,9R,10S)-10-(hydroxymethyl)-N-phenyl-9-(4-(phenylethynyl)phenyl)-1,6-diazabicyclo[6.2.0] decane-6-carboxamide] gave an EC50 of 42 nM.

`COc1ccc(NC(=O)N2CCCCN3[C@H](CO)C(c4ccccc4)[C@@H]3C2)cc1` (stereo partly drawn) [Compound 31, (8R,10S)-10-(hydroxymethyl)-N-(4-methoxyphenyl)-9-phenyl-1,6-diazabicyclo[6.2.0] decane-6-carboxamide] gave an EC50 of 1820 nM.

For the molecule `COc1ccc(NC(=O)N2CCCCN3[C@H](CN4CCN(C)CC4)[C@H](c4ccc(C#Cc5ccccc5)cc4)[C@@H]3C2)cc1` [Compound 32, (8R,9S,10S)-N-(4-methoxyphenyl)-10-[(4-methylpiperazin-1-yl)methyl]-9-[4-(2-phenylethynyl)phenyl]-1,6-diazabicyclo[6.2.0] decane-6-carboxamide], the EC50 came to 158 nM.

On to `COc1ccc(NC(=O)N2CCCCN3[C@H](CN4CCC(C)(O)CC4)[C@H](c4ccc(C#Cc5ccccc5)cc4)[C@@H]3C2)cc1` [Compound 33, (8R,9S,10S)-10-[(4-hydroxy-4-methylpiperidin-1-yl)methyl]-N-(4-methoxyphenyl)-9-[4-(2-phenylethynyl)phenyl]-1,6-diazabicyclo[6.2.0] decane-6-carboxamide], for which the EC50 was 2320 nM.

`COc1ccc(NC(=O)N2CCN3[C@H](CO)[C@H](c4ccc(C#Cc5ccccc5)cc4)[C@@H]3C2)cc1` [Compound 34, (6R,7R,8S)-8-(hydroxymethyl)-N-(4-methoxyphenyl)-7-[4-(2-phenylethynyl)phenyl]-1,4-diazabicyclo[4.2.0] octane-4-carboxamide] gave an EC50 of 4660 nM.

With `COc1ccc(NC(=O)N2CCCCN3[C@H](COCC(=O)O)[C@H](c4ccc(C#Cc5ccccc5)cc4)[C@@H]3C2)cc1` [Compound 35, 2-{[(8R,9R,10S)-6-[(4-methoxyphenyl)carbamoyl]-9-[4-(2-phenylethynyl)phenyl]-1,6-diazabicyclo[6.2.0]decan-10-yl]methoxy}acetic acid], it took 65 nM to reach a half-maximal effect (EC50).

The molecule `COc1ccc(C(=O)N2CCCCN3[C@H](CO)[C@H](c4ccc(C#Cc5ccccc5)cc4)[C@@H]3C2)cc1` [Compound 36, [(8R,9R,10S)-6-(4-methoxybenzoyl)-9-[4-(2-phenylethynyl)phenyl]-1,6-diazabicyclo[6.2.0]decan-10-yl]methanol] displayed an EC50 of 7900 nM.

The molecule `COc1ccc(NC(=O)N2CCCCN3[C@H](CO)[C@H](c4ccc(C#Cc5cccc(F)c5)cc4)[C@@H]3C2)cc1` [Compound 38, (8R,9R,10S)-9-{4-[2-(3-fluorophenyl)ethynyl]phenyl}-10-(hydroxymethyl)-N-(4-methoxyphenyl)-1,6-diazabicyclo[6.2.0] decane-6-carboxamide] registered an EC50 of 15 nM.

Take `COc1ccc(NC(=O)N2CCCCN3[C@H](CO)[C@H](c4ccc(-c5csc(-c6ccccc6)n5)cc4)[C@@H]3C2)cc1` [Compound 39, (8R,9R,10S)-10-(hydroxymethyl)-N-(4-methoxyphenyl)-9-[4-(2-phenyl-1,3-thiazol-4-yl)phenyl]-1,6-diazabicyclo[6.2.0] decane-6-carboxamide]: the EC50 was found to be 5170 nM.

Regarding `COc1ccc(S(=O)(=O)N2CCCCN3[C@H](CO)[C@H](c4ccc(C#Cc5ccccc5)cc4)[C@@H]3C2)cc1` [Compound 40, [(8R,9R,10S)-6-(4-methoxybenzene-sulfonyl)-9-[4-(2-phenylethynyl)phenyl]-1,6-diazabicyclo[6.2.0]decan-10-yl]methanol], the midpoint of the response, the EC50, lay at 5160 nM.

`COc1ccc(NC(=O)N2CCCCN3[C@H](CO)[C@H](c4ccc(-c5ccccc5)cc4)[C@@H]3C2)cc1` [Compound 41, (8R,9R,10S)-10-(hydroxymethyl)-N-(4-methoxyphenyl)-9-(4-phenylphenyl)-1,6-diazabicyclo[6.2.0] decane-6-carboxamide]: the EC50 amounted to 9830 nM.

In the case of `COc1ccc(NC(=O)N2CCCCN3[C@H](CO)[C@H](c4ccc(-c5ccc(F)cc5)cc4)[C@@H]3C2)cc1` [Compound 42, (8R,9R,10S)-9-[4-(4-fluorophenyl)phenyl]-10-(hydroxymethyl)-N-(4-methoxyphenyl)-1,6-diazabicyclo[6.2.0] decane-6-carboxamide], the EC50 was 9680 nM.

In turn, `COc1ccc(NC(=O)N2CCCCN3C[C@H](c4ccc(C#Cc5ccccn5)cc4)[C@@H]3C2)cc1` [Compound 43, (8R,9S)-N-(4-methoxyphenyl)-9-{4-[2-(pyridin-2-yl)ethynyl]phenyl}-1,6-diazabicyclo[6.2.0] decane-6-carboxamide] gave an EC50 of 229 nM.

Molecule `O=C(NC1CCCCC1)N1CCCCN2[C@H](CO)[C@H](c3ccc(C#Cc4ccccc4)cc3)[C@@H]2C1` [Compound 44, (8R,9R,10S)-N-cyclohexyl-10-(hydroxymethyl)-9-[4-(2-phenylethynyl)phenyl]-1,6-diazabicyclo[6.2.0] decane-6-carboxamide] had an EC50 of 1100 nM.

As for `COc1ccc(NC(=O)N2CCCCN3[C@H](CO)[C@H](c4ccc(C#CC5CCCCC5)cc4)[C@@H]3C2)cc1` [Compound 45, (8R,9R,10S)-9-[4-(2-cyclohexylethynyl)phenyl]-10-(hydroxymethyl)-N-(4-methoxyphenyl)-1,6-diazabicyclo[6.2.0] decane-6-carboxamide], the EC50 was determined as 846 nM.

Regarding `COc1ccc(NC(=O)N2CCCCN3[C@H](CO)[C@H](c4ccc(-c5ccccc5F)cc4)[C@@H]3C2)cc1` [Compound 46, (8R,9R,10S)-9-[4-(2-fluorophenyl)phenyl]-10-(hydroxymethyl)-N-(4-methoxyphenyl)-1,6-diazabicyclo[6.2.0] decane-6-carboxamide], the EC50 was 17800 nM.

Consider `COc1ccc(NC(=O)N2C/C=C\CN3[C@H](CO)[C@H](c4ccc(C#Cc5ccccc5)cc4)[C@@H]3C2)cc1` [Compound 47, (8R,9R,10S)-10-(hydroxymethyl)-N-(4-methoxyphenyl)-9-[4-(2-phenylethynyl)phenyl]-1,6-diazabicyclo[6.2.0]dec-3-ene-6-carboxamide], for which the 50% effective concentration (EC50) was determined as 23 nM.

Regarding `COc1ccc(NC(=O)N2CCCCN3[C@@H](CN)[C@H](c4ccc(C#Cc5ccccc5)cc4)[C@@H]3C2)cc1` [Compound 48, (8R,9S,10R)-10-(aminomethyl)-N-(4-methoxyphenyl)-9-[4-(2-phenylethynyl)phenyl]-1,6-diazabicyclo[6.2.0] decane-6-carboxamide], a half-maximal effect (EC50) was put at 36 nM.

For the molecule `O=C(Nc1ccccc1F)N1CCCCN2[C@H](CO)[C@H](c3ccc(C#Cc4ccccc4)cc3)[C@@H]2C1` [Compound 49, (8R,9R,10S)-N-(2-fluorophenyl)-10-(hydroxymethyl)-9-[4-(2-phenylethynyl)phenyl]-1,6-diazabicyclo[6.2.0] decane-6-carboxamide], the 50% effective concentration (EC50) is 65 nM.

A word on the EC50: it is the concentration at which the effect is half-maximal. A lower EC50 goes with higher potency in that assay.
